Assay results from US20050054708A1, “Combinations of drugs for the treatment of neoplasms” (priority 2003, published 2005).
Like-named read-outs stand apart in the source and are kept apart here.

How the values were obtained:
A549 cells = assay: Anti-proliferation assay (Alamar Blue metabolism);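 note: 384-well plates, 72–80 h exposure at 37 °C, Alamar Blue fluorescence (ex 530 nm) read 3.5–5 h after dye addition, inhibition relative to mean of vehicle-only wells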
Experimental: Human non-small cells lung carcinoma cells A549 (ATCC# CCL-185), were grown at 37±0.5° C. and 5% CO2 in DMEM supplemented with 10% FBS, 2 mM glutamine, 1% penicillin, and 1% streptomycin.
Stock solutions (1000×) of each compound were prepared in DMSO and stored at −20° C. Master stock plates of 2-fold or 4-fold serial dilutions of individual compounds were prepared in 384-well plates. Combination matrices of test compounds were generated from these master stock plates by dilution into growth media described above. […] The combination matrices were used immediately and discarded.
The anti-proliferation assays were performed in 384-well plates. 6.6 μL of 10× stock solutions from the combination matrices were added to 40 μL of culture media in assay wells. The tumor cells were liberated from the culture flask using a solution of 0.25% trypsin. Cells were diluted in culture media such that 3000 or 6000 cells were delivered in 20 μL of media into each assay well. Assay plates were incubated for 72-80 hours at 37° C. ±0.5° C. with 5% CO2. Twenty microliters of 20% Alamar Blue warmed to 37° C. ±0.5° C. was added to each assay well following the incubation period. Alamar Blue metabolism was quantified by the amount of fluorescence intensity 3.5-5.0 hours after addition. Quantification, using an LJL Analyst AD reader (LJL Biosystems), was taken in the middle of the well with high attenuation, a 100 msec read time, an excitation filter at 530 nm, and an emission filter at 575 nm. For some experiments, quantification was performed using a Wallac Victor^2 reader. Measurements were taken at the top of the well with stabilized energy lamp control; a 100 msec read time, an excitation filter at 530 nm, and an emission filter at 590 nm.
The percent inhibition (% I) for each well was calculated using the following formula: % I=[(avg. untreated wells−treated well)/(avg. untreated wells)]×100 The average untreated well value (avg. untreated wells) is the arithmetic mean of 40 wells from the same assay plate treated with vehicle alone.
Inhibition of proliferation was measured by anti-proliferation assay as described below after incubation with the test compound(s) for 72 hours.

[1] = cited from earlier work

COc1cc([C@@H]2c3cc4c(cc3[C@@H](O[C@@H]3O[C@@H]5CO[C@@H](C)O[C@H]5[C@H](O)[C@H]3O)[C@H]3COC(=O)[C@H]23)OCO4)cc(OC)c1O [Etoposide, etoposide]
inhibition at 0.04 µM (A549 cells; Homo sapiens, A549, read-out: Percent inhibition of Alamar Blue Metabolism, etoposide 0.04 μM alone): 3.9%
inhibition at 0.08 µM (A549 cells; Homo sapiens, A549, read-out: Percent inhibition of Alamar Blue Metabolism, etoposide 0.08 μM alone): 46.5%
inhibition at 0.16 µM (A549 cells; Homo sapiens, A549, read-out: Percent inhibition of Alamar Blue Metabolism, etoposide 0.16 μM alone): 38.7%
inhibition at 0.31 µM (A549 cells; Homo sapiens, A549, read-out: Percent inhibition of Alamar Blue Metabolism, etoposide 0.31 μM alone): 42.7%
inhibition at 0.63 µM (A549 cells; Homo sapiens, A549, read-out: Percent inhibition of Alamar Blue Metabolism, etoposide 0.63 μM alone): 52.4%
inhibition at 1.25 µM (A549 cells; Homo sapiens, A549, read-out: Percent inhibition of Alamar Blue Metabolism, etoposide 1.25 μM alone): 62.8%
inhibition at 2.5 µM (A549 cells; Homo sapiens, A549, read-out: Percent inhibition of Alamar Blue Metabolism, etoposide 2.50 μM alone): 76.1%
inhibition at 5 µM (A549 cells; Homo sapiens, A549, read-out: Percent inhibition of Alamar Blue Metabolism, etoposide 5.00 μM alone): 77.5%
inhibition at 10 µM (A549 cells; Homo sapiens, A549, read-out: Percent inhibition of Alamar Blue Metabolism, etoposide 10.00 μM alone): 79.4%

N.N.O=C([O-])C1(C(=O)[O-])CCC1.[Pt+2] [Carboplatin, carboplatin]
Percent inhibition of Alamar Blue Metabolism (A549 cells; carboplatin 0.15 μM alone): 5.5%
Percent inhibition of Alamar Blue Metabolism (A549 cells; carboplatin 0.30 μM alone): 14.5%
Percent inhibition of Alamar Blue Metabolism (A549 cells; carboplatin 0.59 μM alone): 9.8%
Percent inhibition of Alamar Blue Metabolism (A549 cells; carboplatin 1.19 μM alone): −19.0%
Percent inhibition of Alamar Blue Metabolism (A549 cells; carboplatin 2.38 μM alone): 13.9%
Percent inhibition of Alamar Blue Metabolism (A549 cells; carboplatin 4.75 μM alone): 16.4%
Percent inhibition of Alamar Blue Metabolism (A549 cells; carboplatin 9.50 μM alone): 35.8%
Percent inhibition of Alamar Blue Metabolism (A549 cells; carboplatin 19.00 μM alone): 30.5%
Percent inhibition of Alamar Blue Metabolism (A549 cells; carboplatin 38.00 μM alone): 48.7%

N=C(N)c1ccc(OCCCCCOc2ccc(C(=N)N)cc2)cc1 [Pentamidine isethionate, 4,4′-diamidino-diphenoxypentane di(β-hydroxyethanesulfonate)]
solubility ([1]; in ether, acetone, and chloroform): insoluble
solubility ([1]; in water and glycerin): soluble

COc1cccc2c1C(=O)c1c(O)c3c(c(O)c1C2=O)C[C@@](O)(C(=O)CO)C[C@@H]3O[C@H]1C[C@H](N)[C@H](O)[C@H](C)O1 [Doxorubicin, doxorubicin]
inhibition at 0.0008 µM (A549 cells; Homo sapiens, A549, read-out: Percent inhibition of Alamar Blue Metabolism, doxorubicin 0.0008 μM alone): 32%
inhibition at 0.0016 µM (A549 cells; Homo sapiens, A549, read-out: Percent inhibition of Alamar Blue Metabolism, doxorubicin 0.0016 μM alone): 27.5%
inhibition at 0.0031 µM (A549 cells; Homo sapiens, A549, read-out: Percent inhibition of Alamar Blue Metabolism, doxorubicin 0.0031 μM alone): 34.4%
inhibition at 0.0063 µM (A549 cells; Homo sapiens, A549, read-out: Percent inhibition of Alamar Blue Metabolism, doxorubicin 0.0063 μM alone): 40.3%
inhibition at 0.0125 µM (A549 cells; Homo sapiens, A549, read-out: Percent inhibition of Alamar Blue Metabolism, doxorubicin 0.0125 μM alone): 55.6%
inhibition at 0.025 µM (A549 cells; Homo sapiens, A549, read-out: Percent inhibition of Alamar Blue Metabolism, doxorubicin 0.0250 μM alone): 63.8%
inhibition at 0.05 µM (A549 cells; Homo sapiens, A549, read-out: Percent inhibition of Alamar Blue Metabolism, doxorubicin 0.0500 μM alone): 67.5%
inhibition at 0.1 µM (A549 cells; Homo sapiens, A549, read-out: Percent inhibition of Alamar Blue Metabolism, doxorubicin 0.1000 μM alone): 63%
inhibition at 0.2 µM (A549 cells; Homo sapiens, A549, read-out: Percent inhibition of Alamar Blue Metabolism, doxorubicin 0.2000 μM alone): 62.9%

CC[C@]1(O)C[C@@H]2CN(CCc3c([nH]c4ccccc34)[C@@](C(=O)OC)(c3cc4c(cc3OC)N(C)[C@H]3[C@@](O)(C(=O)OC)[C@H](OC(C)=O)[C@]5(CC)C=CCN6CC[C@]43[C@@H]65)C2)C1 [Vinblastine, vinblastine]
inhibition at 0.0001 µM (A549 cells; Homo sapiens, A549, read-out: Percent inhibition of Alamar Blue Metabolism, vinblastine 0.0001 μM alone): -22.3%
inhibition at 0.0002 µM (A549 cells; Homo sapiens, A549, read-out: Percent inhibition of Alamar Blue Metabolism, vinblastine 0.0002 μM alone): -8.3%
inhibition at 0.0004 µM (A549 cells; Homo sapiens, A549, read-out: Percent inhibition of Alamar Blue Metabolism, vinblastine 0.0004 μM alone): 7.4%
inhibition at 0.0008 µM (A549 cells; Homo sapiens, A549, read-out: Percent inhibition of Alamar Blue Metabolism, vinblastine 0.0008 μM alone): 41.5%
inhibition at 0.0016 µM (A549 cells; Homo sapiens, A549, read-out: Percent inhibition of Alamar Blue Metabolism, vinblastine 0.0016 μM alone): 48.4%
inhibition at 0.0031 µM (A549 cells; Homo sapiens, A549, read-out: Percent inhibition of Alamar Blue Metabolism, vinblastine 0.0031 μM alone): 61.1%
inhibition at 0.0063 µM (A549 cells; Homo sapiens, A549, read-out: Percent inhibition of Alamar Blue Metabolism, vinblastine 0.0063 μM alone): 67.2%
inhibition at 0.0125 µM (A549 cells; Homo sapiens, A549, read-out: Percent inhibition of Alamar Blue Metabolism, vinblastine 0.0125 μM alone): 77.2%
inhibition at 0.025 µM (A549 cells; Homo sapiens, A549, read-out: Percent inhibition of Alamar Blue Metabolism, vinblastine 0.0250 μM alone): 85.5%

O=c1[nH]cc(F)c(=O)[nH]1 [5-Fluorouracil, 5-fluorouracil]
inhibition at 0.01 µM (A549 cells; Homo sapiens, A549, read-out: Percent inhibition of Alamar Blue Metabolism, 5-fluorouracil 0.01 μM alone): 2.9%
inhibition at 0.1 µM (A549 cells; Homo sapiens, A549, read-out: Percent inhibition of Alamar Blue Metabolism, 5-fluorouracil 0.10 μM alone): -0.5%
inhibition at 0.5 µM (A549 cells; Homo sapiens, A549, read-out: Percent inhibition of Alamar Blue Metabolism, 5-fluorouracil 0.50 μM alone): 40.6%
inhibition at 0.75 µM (A549 cells; Homo sapiens, A549, read-out: Percent inhibition of Alamar Blue Metabolism, 5-fluorouracil 0.75 μM alone): 64.3%
inhibition at 1 µM (A549 cells; Homo sapiens, A549, read-out: Percent inhibition of Alamar Blue Metabolism, 5-fluorouracil 1.00 μM alone): 75.4%
inhibition at 1.5 µM (A549 cells; Homo sapiens, A549, read-out: Percent inhibition of Alamar Blue Metabolism, 5-fluorouracil 1.50 μM alone): 73.6%
inhibition at 2 µM (A549 cells; Homo sapiens, A549, read-out: Percent inhibition of Alamar Blue Metabolism, 5-fluorouracil 2.00 μM alone): 87.2%
inhibition at 5 µM (A549 cells; Homo sapiens, A549, read-out: Percent inhibition of Alamar Blue Metabolism, 5-fluorouracil 5.00 μM alone): 79.8%
inhibition at 10 µM (A549 cells; Homo sapiens, A549, read-out: Percent inhibition of Alamar Blue Metabolism, 5-fluorouracil 10.00 μM alone): 82.4%

Nc1ccn([C@@H]2O[C@H](CO)[C@@H](O)C2(F)F)c(=O)n1 [Gemcitabine, gemcitabine]
inhibition at 0.00016 µM (A549 cells; Homo sapiens, A549, read-out: Percent inhibition of Alamar Blue Metabolism, gemcitabine 0.00016 μM alone): 7.9%
inhibition at 0.00033 µM (A549 cells; Homo sapiens, A549, read-out: Percent inhibition of Alamar Blue Metabolism, gemcitabine 0.00033 μM alone): 19.1%
inhibition at 0.00066 µM (A549 cells; Homo sapiens, A549, read-out: Percent inhibition of Alamar Blue Metabolism, gemcitabine 0.00066 μM alone): 11.3%
inhibition at 0.00131 µM (A549 cells; Homo sapiens, A549, read-out: Percent inhibition of Alamar Blue Metabolism, gemcitabine 0.00131 μM alone): 12.3%
inhibition at 0.00263 µM (A549 cells; Homo sapiens, A549, read-out: Percent inhibition of Alamar Blue Metabolism, gemcitabine 0.00263 μM alone): 13.8%
inhibition at 0.00525 µM (A549 cells; Homo sapiens, A549, read-out: Percent inhibition of Alamar Blue Metabolism, gemcitabine 0.00525 μM alone): 61.8%
inhibition at 0.0105 µM (A549 cells; Homo sapiens, A549, read-out: Percent inhibition of Alamar Blue Metabolism, gemcitabine 0.01050 μM alone): 87.4%
inhibition at 0.021 µM (A549 cells; Homo sapiens, A549, read-out: Percent inhibition of Alamar Blue Metabolism, gemcitabine 0.02100 μM alone): 88.7%
inhibition at 0.042 µM (A549 cells; Homo sapiens, A549, read-out: Percent inhibition of Alamar Blue Metabolism, gemcitabine 0.04200 μM alone): 89.8%
